The values below come from publication PMC3507690, “A Single Glycine-Alanine Exchange Directs Ligand Specificity of the Elephant Progestin Receptor” (PLoS ONE, 2012).

The target in this assay is T1, hPR LBD (initial construct) (Homo sapiens, UniProt P06401).
T1 construct: gene PGR; pET3d, E. coli BL21 lysate; cloned from HOSE cell cDNA
T1 sequence (P06401 634-933): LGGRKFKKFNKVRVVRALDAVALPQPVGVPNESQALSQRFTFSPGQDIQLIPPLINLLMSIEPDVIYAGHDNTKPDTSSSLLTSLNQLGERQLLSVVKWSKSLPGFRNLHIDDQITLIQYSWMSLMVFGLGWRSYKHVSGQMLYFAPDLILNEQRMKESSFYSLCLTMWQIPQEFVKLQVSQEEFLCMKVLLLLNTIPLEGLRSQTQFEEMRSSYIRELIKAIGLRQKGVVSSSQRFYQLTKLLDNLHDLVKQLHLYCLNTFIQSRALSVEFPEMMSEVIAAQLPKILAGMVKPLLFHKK
The assay is described as follows: competitive radioligand binding, charcoal separation, bacterial lysate. Particulars: 1 nM [3H]-progesterone, 16 h, 4 °C; relative binding affinity compared to progesterone.

Take `CC(=O)[C@H]1CC[C@H]2[C@@H]3CC[C@H]4CC(=O)CC[C@]4(C)[C@H]3CC[C@]12C` [DHP, 5α-dihydroprogesterone]: the RBA entry is “relative binding affinity (RBA) of DHP compared to progesterone measured by competitive binding assays”.
